# In PubChem BioAssay (NCI):
#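 Grown in 96-well plates, cells were treated for 48 hours with each compound at five concentrations. Insufficient inhibition: endpoint recorded as highest concentration tested. TGI: concentration producing complete growth inhibition.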
# How the values were obtained:
# Assay in all cases: growth of human tumour cells (NCI), 48 h
# SNB-75 CNS = tested on: SNB-75 CNS
# UO-31 renal = tested on: UO-31 renal
# OVCAR-3 ovarian = tested on: OVCAR-3 ovarian
# HCC-2998 colon = tested on: HCC-2998 colon
# SF-295 CNS = tested on: SF-295 CNS
# T-47D breast = tested on: T-47D breast
# UACC-62 melanoma = tested on: UACC-62 melanoma
# NCI-H23 lung = tested on: NCI-H23 lung
# HT29 colon = tested on: HT29 colon
# PC-3 prostate = tested on: PC-3 prostate
# HCT-15 colon = tested on: HCT-15 colon
Compound,TGI (SNB-75 CNS),TGI (UO-31 renal),TGI (OVCAR-3 ovarian),TGI (HCC-2998 colon),TGI (SF-295 CNS),TGI (T-47D breast),TGI (UACC-62 melanoma),TGI (NCI-H23 lung),TGI (HT29 colon),TGI (PC-3 prostate),TGI (HCT-15 colon)
CN(C)CCCCN1c2ccccc2Sc2cc(N=[N+]=[N-])ccc21,4.8 µM,3.66 µM,3.59 µM,3.37 µM,4.05 µM,4.86 µM,3.31 µM,22.4 µM,2.9 µM,4.22 µM,4.53 µM
CCOC(=O)C1C(c2ccc(OC)cc2)c2c([nH][nH]c2=O)CC1(O)OCC (stereo not given),> 100 µM,> 100 µM,> 100 µM,> 100 µM,> 100 µM,> 100 µM,> 100 µM,> 100 µM,> 100 µM,> 100 µM,> 100 µM
CN(C)C(=O)Nc1cc2c3c(c1)CCCN3CCC2,> 10 µM,> 10 µM,> 10 µM,> 10 µM,> 10 µM,> 10 µM,> 10 µM,> 10 µM,> 10 µM,> 10 µM,> 10 µM
O=c1c2cccnc2cc(-c2ccccc2)n1CCO,> 100 µM,> 100 µM,> 100 µM,> 100 µM,> 100 µM,> 100 µM,> 100 µM,> 100 µM,> 100 µM,> 100 µM,> 100 µM
O=c1[nH]c(=S)[nH]n1C(=S)n1[nH]c(=S)[nH]c1=O,> 100 µM,> 100 µM,> 100 µM,> 100 µM,> 100 µM,> 100 µM,> 100 µM,> 100 µM,> 100 µM,> 100 µM,> 100 µM
COc1cccc2c(Nc3ccc(S(=O)(=O)NC(C)=O)cc3)c3ccc([N+](=O)[O-])cc3nc12,> 100 µM,> 100 µM,> 90.4 µM,> 100 µM,> 100 µM,> 100 µM,> 58.3 µM,> 100 µM,28.5 µM,> 100 µM,> 100 µM
COC1=C(N2CC2)C(=O)c2nc3n(c2C1=O)CCC3,3.57 µM,,10.7 µM,2.44 µM,2.07 µM,4.15 µM,3.12 µM,2.34 µM,1.57 µM,5.27 µM,1.55 µM
Nc1cn(Cc2ccccc2)c2nc(/C=C3/C=CC=CC3=O)c(O)n12,> 100 µM,> 100 µM,> 100 µM,> 100 µM,> 100 µM,> 100 µM,> 100 µM,> 100 µM,> 100 µM,> 100 µM,> 100 µM
COC(=O)c1ccccc1/C=C1\Cc2cc(C)cc(C)c2C1=O,> 100 µM,,> 100 µM,> 100 µM,> 100 µM,> 100 µM,> 100 µM,> 100 µM,> 100 µM,> 100 µM,> 100 µM
Cc1ccc(S(=O)(=O)NC2C(=O)c3ccccc3C(=O)C2n2cnc3ccccc32)cc1 (stereo not given),> 100 µM,,15.4 µM,34.7 µM,> 100 µM,> 100 µM,74.4 µM,58.6 µM,> 100 µM,64.3 µM,> 100 µM
CCOC(=O)C(NC(=O)CC(C)C)(Nc1ccc(S(=O)(=O)Nc2nc(C)cc(C)n2)cc1)C(F)(F)F (stereo not given),> 100 µM,> 100 µM,> 100 µM,99.2 µM,> 100 µM,> 100 µM,> 100 µM,> 100 µM,> 100 µM,> 100 µM,> 100 µM
Cc1cc(NCCCCCCCCCC[n+]2c(C)cc(N)c3ccccc32)c2ccccc2n1,7.71 µM,26.4 µM,65.9 µM,6.01 µM,13.6 µM,12.3 µM,4.17 µM,6.54 µM,> 100 µM,13.7 µM,18.4 µM
COc1ccc(C(c2c[nH]c3ccc(Br)cc23)c2c[nH]c3ccc(Br)cc23)cc1,1.54 µM,1.69 µM,0.52 µM,0.353 µM,1.17 µM,2.67 µM,0.689 µM,1.47 µM,1.03 µM,0.843 µM,0.624 µM
Fc1ccccc1-c1nn2c(C34CC5CC(CC(C5)C3)C4)nnc2s1,> 100 µM,> 100 µM,> 100 µM,> 100 µM,> 100 µM,> 100 µM,> 100 µM,> 100 µM,> 100 µM,> 100 µM,> 100 µM
CCCCCC(CO)C(O)(C(F)(F)F)C(F)(F)F (stereo not given),> 10 µM,,> 10 µM,> 10 µM,> 10 µM,> 10 µM,> 10 µM,> 10 µM,> 10 µM,> 10 µM,> 10 µM
C=C1CC(C)(COc2ccc3ccc(=O)oc3c2)OC1=O (stereo not given),22.6 µM,29.5 µM,17.2 µM,6.96 µM,20.8 µM,17.3 µM,13.2 µM,12.3 µM,9.66 µM,16.2 µM,8.71 µM
CC1(C)CCCCCCC2OC2CCCCCC(C)(C)C1=O (stereo not given),> 100 µM,88.2 µM,> 100 µM,> 70.8 µM,> 67.3 µM,> 100 µM,> 100 µM,> 100 µM,> 60.5 µM,> 94.6 µM,> 100 µM
CCN(CC)C(=S)SNCc1ccc(S(N)(=O)=O)cc1,39.5 µM,28.8 µM,27.5 µM,> 100 µM,34.9 µM,47.7 µM,83.1 µM,44.3 µM,21 µM,26.1 µM,58 µM
O=C1CCC2CCC1C2 (stereo not given),> 100 µM,> 100 µM,> 100 µM,> 100 µM,> 100 µM,> 100 µM,> 100 µM,> 100 µM,> 100 µM,> 100 µM,> 100 µM
CCOP(=O)(OCC)c1ccc(=O)[nH]c1-c1cccs1,> 100 µM,> 100 µM,> 100 µM,> 100 µM,> 100 µM,> 100 µM,> 100 µM,> 100 µM,> 100 µM,> 100 µM,> 100 µM

Compound,TGI (SNB-75 CNS),TGI (UO-31 renal),TGI (OVCAR-3 ovarian),TGI (HCC-2998 colon),TGI (SF-295 CNS),TGI (T-47D breast),TGI (UACC-62 melanoma),TGI (NCI-H23 lung),TGI (HT29 colon),TGI (PC-3 prostate),TGI (HCT-15 colon)
N#Cc1c(Cl)c2ccccc2n2c1nc1ccccc12,> 100 µM,38.2 µM,> 100 µM,40.1 µM,> 100 µM,46.8 µM,> 100 µM,53.8 µM,35.7 µM,> 100 µM,33.1 µM
COc1ccc(C2=C(N)c3c(OC)cccc3C2=O)cc1,> 100 µM,> 100 µM,> 100 µM,> 100 µM,> 100 µM,> 100 µM,> 100 µM,> 100 µM,> 100 µM,> 100 µM,> 100 µM
CCCCCCCCC/C=C1\CC(CO)(COC(=O)C2CCCCC2)OC1=O (stereo not given),32.9 µM,55.8 µM,33.4 µM,42.3 µM,34.1 µM,51.7 µM,46.9 µM,47 µM,42 µM,40.4 µM,41.7 µM
C=C(Br)CN(C(C)=O)C1CCCCC1,> 100 µM,> 100 µM,> 100 µM,> 100 µM,> 100 µM,> 100 µM,> 100 µM,> 100 µM,> 100 µM,> 100 µM,> 100 µM
NC(N)=N/N=C/c1c(-c2ccc([N+](=O)[O-])cc2)nc2n1CCS2,14.5 µM,30.2 µM,41.3 µM,19.7 µM,36.7 µM,16.3 µM,35.3 µM,31.3 µM,31 µM,27.7 µM,36.7 µM
O=C(O)c1ccc2c(c1)CC1(C2)Cc2ccccc2C1=O (stereo not given),> 100 µM,> 100 µM,> 100 µM,> 100 µM,> 100 µM,> 100 µM,> 100 µM,> 100 µM,> 100 µM,> 100 µM,> 100 µM
COc1cc(NP(=O)(Oc2ccccc2)Oc2ccccc2)ccc1Nc1c2ccccc2nc2c1[nH]c1ccccc12,5.7 µM,16.6 µM,4.82 µM,23.2 µM,13.1 µM,12.7 µM,8.58 µM,12.3 µM,2.96 µM,> 89.7 µM,> 37.3 µM
COc1ccc(NC(C)=O)cc1C1CCC(=O)N1 (stereo not given),> 100 µM,> 100 µM,> 100 µM,> 100 µM,> 100 µM,> 100 µM,> 100 µM,> 100 µM,> 100 µM,> 100 µM,> 100 µM
COc1c2ccccc2c(OC)c2nc(C)ccc12,> 100 µM,> 100 µM,> 100 µM,> 100 µM,> 100 µM,> 100 µM,> 100 µM,> 100 µM,> 100 µM,> 100 µM,> 100 µM
O=c1oc2ccccc2c(O)c1C(c1ccc(/C=C/c2ccccc2)cc1)c1c(O)c2ccccc2oc1=O,66.5 µM,41.1 µM,> 100 µM,45.2 µM,,> 100 µM,> 100 µM,> 100 µM,37.2 µM,> 100 µM,> 100 µM
CC(=O)N(CCc1ccccc1)C(C#N)c1ccc(OCCCCCCCCCCOc2ccc(C(C#N)N(CCc3ccccc3)C(C)=O)cc2)cc1 (stereo not given),38.3 µM,> 100 µM,> 100 µM,> 100 µM,51.6 µM,> 100 µM,> 100 µM,> 100 µM,> 100 µM,> 100 µM,> 100 µM
COc1cc(NCc2ccc3nc(OC)c(OC)nc3c2)cc(OC)c1OC,> 100 µM,> 100 µM,> 100 µM,> 100 µM,> 100 µM,> 100 µM,> 100 µM,> 100 µM,> 100 µM,> 100 µM,> 100 µM
CC1=NN(c2nc(N)nc(CSCc3nc(N)nc(N(C)C)n3)n2)C(C)(C)C1,> 100 µM,> 100 µM,> 100 µM,> 100 µM,> 100 µM,> 100 µM,> 100 µM,> 100 µM,> 100 µM,> 100 µM,> 100 µM
C[C@H]1C[C@H](C)c2ccccc2N(C)C1=Nc1ccccc1,> 100 µM,> 100 µM,80 µM,> 100 µM,> 100 µM,> 100 µM,> 100 µM,50 µM,23.3 µM,> 100 µM,> 100 µM
CC1=C(C(=O)NCCc2ccccc2)CC(C(=O)NCCc2ccccc2)=C(C)N1,69.2 µM,> 100 µM,> 100 µM,> 100 µM,> 100 µM,> 100 µM,> 100 µM,> 100 µM,> 100 µM,> 100 µM,> 100 µM
CCOC(=O)/C(C#N)=C1\c2c([nH]c(=S)[nH]c2=O)Oc2ccc3ccccc3c21,52 µM,> 100 µM,58.8 µM,> 100 µM,> 100 µM,> 100 µM,> 100 µM,> 100 µM,> 100 µM,> 100 µM,> 100 µM
OC(C/C(=N\N1CCCCC1)c1cccs1)(C(F)(F)F)C(F)(F)F,> 10 µM,> 10 µM,> 10 µM,> 10 µM,> 10 µM,> 10 µM,> 10 µM,> 10 µM,> 10 µM,> 10 µM,> 10 µM
CC(=O)OCC1OC(N2C(C)=C(C(C)=O)C(c3ccco3)C(C#N)=C2S)C(OC(C)=O)C(OC(C)=O)C1OC(C)=O (stereo not given),> 100 µM,> 100 µM,> 100 µM,> 100 µM,> 100 µM,> 100 µM,> 100 µM,> 100 µM,> 100 µM,> 100 µM,> 100 µM
O=C(O)c1ccc(Nc2nc3ccccc3nc2-c2cccs2)cc1,> 100 µM,> 100 µM,> 100 µM,> 100 µM,> 100 µM,> 100 µM,> 100 µM,> 100 µM,> 100 µM,> 100 µM,> 100 µM
CC(=O)NC1C(O)C(O)C(CO)OC1n1ncc(=O)[nH]c1=O (stereo not given),> 100 µM,> 100 µM,> 100 µM,> 100 µM,> 100 µM,> 100 µM,> 100 µM,> 100 µM,> 100 µM,> 100 µM,> 100 µM
